Results taken from patent publication US5028626A, “Peptides with pharmaceutical activity” (Zambon Group S.p.A., priority 1988, dated 1991).
Where a name gives a salt, the structure may show the parent alone.

Columns and labels:
[1] = molecular target: T1, purified aminopeptidase obtained from hog kidney (leucineaminopeptidase) (Sus scrofa, UniProt P28839); test: Inhibitory effect on leucineaminopeptidase activity (L-leucinamide hydrolysis, absorbance at 238 nm); format: biochemical; settings: leucineamide 50 mM, tris-HCl pH 8.5, MgCl2 5 mM, 25° C., read-out: IC50 (concentration of the compound inducing a 50% decrease of the enzymatic activity)
T1 construct: a purified aminopeptidase obtained from hog kidney; purchased Baehringer (so in the source); host or cells: hog kidney tissue
T1 sequence (P28839 1-519): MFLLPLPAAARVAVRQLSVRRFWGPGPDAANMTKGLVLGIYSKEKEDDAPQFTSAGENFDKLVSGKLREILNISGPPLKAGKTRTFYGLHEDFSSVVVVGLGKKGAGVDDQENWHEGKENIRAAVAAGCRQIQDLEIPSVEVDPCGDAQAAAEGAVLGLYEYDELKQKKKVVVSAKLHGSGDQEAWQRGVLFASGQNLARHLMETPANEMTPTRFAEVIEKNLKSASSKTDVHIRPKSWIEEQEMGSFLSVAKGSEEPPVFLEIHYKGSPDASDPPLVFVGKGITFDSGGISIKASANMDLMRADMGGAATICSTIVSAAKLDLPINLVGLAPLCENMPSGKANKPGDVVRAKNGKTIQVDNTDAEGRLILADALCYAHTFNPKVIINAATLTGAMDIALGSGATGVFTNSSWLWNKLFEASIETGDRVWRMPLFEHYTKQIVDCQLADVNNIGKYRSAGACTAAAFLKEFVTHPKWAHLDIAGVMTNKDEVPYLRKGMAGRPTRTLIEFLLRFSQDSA
Text: (§1) The activity of the compounds of formula I has been evaluated as inhibitory effect on the activity of leucineaminopeptidase and as stimulating effect on the mitogenetic activity of mouse splenic lymphocytes.
The inhibitory effect of the tested compounds has been evaluated on a purified aminopeptidase obtained from hog kidney (Baehringer, 100U/mg).
The enzymatic activity was estimated spectrophotometrically by using L-leucinamide as substrate and by measuring the hydrolysis of the peptide bond as decrease of absorbance at 238 nm.
The enzyme was activated prior to assay at 37° C. for 2 hours, in the presence of MgCl2 1 mM and tris-HCl buffer 20 mM pH 8.5 in a total volume of 2.5 ml.
The enzymatic reaction was followed at 238 nm for at least 30 minutes at 25° C. in 2.5 ml of an incubation medium containing 50 μg of enzyme, leucineamide 50 mM, tris-HCl buffer 20 mM pH 8.5 and MgCl2 5 mM in the absence or in the presence of increasing concentrations of the tested compound.
The inhibitory effect was expressed as the concentration of the compound inducing a 50% decrease of the enzymatic activity (IC50, nmoles/1).

[2] = test system: mouse splenic lymphocytes; test: Immunostimulating (mitogenetic) activity: 3H-timidine incorporation in mouse splenic lymphocytes; format: cell-based, mouse (C3H/H2); settings: compound at 1 μM; 48 h + 24 h incubation with 3H-TMD
Description: as §1
The immunostimulating activity has been evaluated as ability to stimulate the incorporation of ^3 H-timidine (^3 H-TMD) in a culture of mouse splenic lymphocytes.
The splenic cells were drawn form C3H/H2 mice (age: 6-8 weeks) and suspended in RPMI-1640 medium containing HEPES 20 mM and 10% bovine fetal serum (inactivated to heat) at the concentration of 5×10^6 cells/ml.
Cells were sowed of Microtest plates (Falcon 3072) in the absence and in the presence of different concentrations of the compounds of formula I in a volume of 0.2 ml of medium.
After an incubation period of 48 hours at 37° C. in humidified environment at 5% CO2 /O2, 0.5 microCi of ^3 H-TMD (specific activity 2 Ci/mmoles) were added and the incubation was protracted for further 24 hours.
Cells were collected by filtration (Tretertek Cell Harnester) and the incorporated radioactivity was measured by Packard TRI-CARB 4530 scintillator.
The mitogenetic effect was expressed as percentage increase in the incorporation of ^3 H-TMD in lymphocytes incubated with the compounds of formula I at the concentration of 1 μM with respect to the basal incorporation value.

SMILES | IC50 [1] [nM] | percentage increase in the incorporation of 3H-TMD in lymphocytes with respect to the basal incorporation value [2] [%]
CC(C)C[C@H](NC(=O)[C@@H](O)[C@H](N)Cc1ccc(S(C)(=O)=O)cc1)C(=O)O [Example 3, N-[(2S,3R)-3-amino-2-hydroxy-4-(4-methylsulfonylphenyl)-butanoyl]-L-leucine] | 10 | –
CC(C)C[C@H](NC(=O)[C@H](O)[C@@H](N)Cc1ccc(S(C)(=O)=O)cc1)C(=O)O [Example 4, N-[(2R,3S)-3-amino-2-hydroxy-4-(4-methylsulfonylphenyl)-butanoyl]-L-leucine] | – | 109
CSc1ccc(C[C@@H](N)[C@H](O)C(=O)N[C@@H](CC(C)C)C(=O)O)cc1 [Example 11, N-[(2S,3R)-3-amino-2-hydroxy-4-(4-methylthiophenyl)-butanoyl]-L-leucine hydrobromide] | 11 | –
